Test systems include SF-268 CNS; OVCAR-4 ovarian; RPMI-8226 leukemia; A498 renal; HCT-116 colon; TK-10 renal; NCI-H460 lung; IGROV1 ovarian; EKVX NSCLC; SF-295 CNS; 786-0 renal; SK-MEL-2 melanoma; UO-31 renal; COLO 205 colon; SN12C renal; A549 NSCLC; SK-OV-3 ovarian; MDA-MB-435; MDA-MB-231 breast; NCI/ADR-RES ovarian.
What all share (assay): NCI tumour cell line growth inhibition, 48 h

The structures appear in SMILES notation.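 Where inhibition never reached the appropriate level, the endpoint shown equals the highest concentration tested. Otherwise, values were interpolated linearly from a five-concentration, 48-hour dose response in 96-well plates. TGI is the concentration that stops growth completely.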

For `Cc1c2n(c(=O)[nH]c1=O)C1OC(CO)C(N=[N+]=[N-])C1O2` (configuration not stated), the TGI with SF-268 CNS, in the experiment on OVCAR-4 ovarian, in the experiment with RPMI-8226 leukemia, in the experiment with A498 renal, with HCT-116 colon and with TK-10 renal was over 100 µM in each case. Further, the TGI with NCI-H460 lung, with IGROV1 ovarian, with EKVX NSCLC, in the experiment on SF-295 CNS, with 786-0 renal and with SK-MEL-2 melanoma was over 100 µM in each case. Moreover, the TGI with UO-31 renal, in the experiment on COLO 205 colon, with SN12C renal, in the experiment with A549 NSCLC and in the experiment on SK-OV-3 ovarian was over 100 µM in each case.
As for `COc1ccc(C2c3cn[nH]c3CC3CCCCC32)cc1` (configuration not stated), the TGI turned out to be 39.6 µM in the experiment on SF-268 CNS; 43.5 µM in the experiment with OVCAR-4 ovarian; 73.2 µM with RPMI-8226 leukemia; 23 µM in the experiment with A498 renal; 31.7 µM in the experiment with HCT-116 colon; 40.4 µM in the experiment on MDA-MB-435. For the same compound, the TGI stood at 37.1 µM with TK-10 renal; 30.4 µM in the experiment on MDA-MB-231 breast; 30.8 µM in the experiment on NCI-H460 lung; 26.6 µM with IGROV1 ovarian; 33.2 µM in the experiment on 786-0 renal; 32.5 µM in the experiment with SK-MEL-2 melanoma. In addition, the TGI was 29.9 µM in the experiment on UO-31 renal, 33.2 µM with SN12C renal and 30.9 µM in the experiment on A549 NSCLC.
Take `CC1=Cc2cccc(C)c2C(=O)C1=O`: the TGI in the experiment on SF-268 CNS worked out at 25.9 µM; in the experiment with OVCAR-4 ovarian it was 10.1 µM; with RPMI-8226 leukemia, 4.36 µM; with A498 renal, 30.9 µM; in the experiment with HCT-116 colon it was 6.88 µM; with TK-10 renal it was 4.75 µM. Also, the TGI was 41.9 µM in the experiment on NCI-H460 lung; 29.2 µM in the experiment with IGROV1 ovarian; 24.5 µM in the experiment with EKVX NSCLC; 11.1 µM in the experiment with SF-295 CNS; 6.96 µM with 786-0 renal; 31.9 µM in the experiment with SK-MEL-2 melanoma. The TGI in the experiment on UO-31 renal stood at 27.1 µM; with COLO 205 colon, 3.49 µM; with SN12C renal it was 37.2 µM; in the experiment with A549 NSCLC it was 25.1 µM; in the experiment with SK-OV-3 ovarian, 36.8 µM.
Take `Cc1ccc(/C=N\NC2c3cc(Cl)ccc3Nc3nc(=O)[nH]c(C)c32)cc1` (configuration not stated): the TGI in the experiment on SF-268 CNS, in the experiment on RPMI-8226 leukemia, with HCT-116 colon, with TK-10 renal, in the experiment with NCI-H460 lung and in the experiment on IGROV1 ovarian was over 100 µM each time. Besides, the TGI in the experiment on EKVX NSCLC, in the experiment on SF-295 CNS, in the experiment with 786-0 renal, with SK-MEL-2 melanoma, in the experiment on UO-31 renal and with COLO 205 colon was over 100 µM throughout. Besides, the TGI in the experiment on SN12C renal, in the experiment with A549 NSCLC and in the experiment with SK-OV-3 ovarian was over 100 µM each time.
With `CC(O)CNC(=O)C(C)Oc1ccc(OCC2CCCCC2)cc1` (configuration not stated), the TGI in the experiment with SF-268 CNS, with OVCAR-4 ovarian, in the experiment with A498 renal, in the experiment on HCT-116 colon, with TK-10 renal and with NCI-H460 lung was over 100 µM in each case. Further, the TGI in the experiment with IGROV1 ovarian, in the experiment with SF-295 CNS, in the experiment with 786-0 renal, in the experiment with SK-MEL-2 melanoma, in the experiment on UO-31 renal and with SN12C renal was over 100 µM throughout. In addition, the TGI in the experiment with A549 NSCLC and in the experiment on SK-OV-3 ovarian was over 100 µM throughout.
Consider `O=P(O)(O)C(N=C(Nc1ccccc1)Nc1ccccc1)P(=O)(O)O`, for which the TGI with SF-268 CNS, in the experiment with NCI/ADR-RES ovarian, in the experiment on HCT-116 colon, in the experiment on TK-10 renal, in the experiment with MDA-MB-231 breast and in the experiment with NCI-H460 lung was over 100 µM in each case. For the same compound, the TGI with IGROV1 ovarian, in the experiment with EKVX NSCLC, in the experiment with SF-295 CNS, in the experiment with 786-0 renal, with UO-31 renal and with COLO 205 colon was over 100 µM in each case. In addition, the TGI in the experiment with A549 NSCLC and with SK-OV-3 ovarian was over 100 µM each time.
Regarding `O=C1C=C/C(=N\N=C(c2ccccc2)c2ccccc2)O1`, the TGI in the experiment with SF-268 CNS, with OVCAR-4 ovarian, with RPMI-8226 leukemia, in the experiment on MDA-MB-435, in the experiment with TK-10 renal and in the experiment on MDA-MB-231 breast was over 10 µM in each case. Further, the TGI in the experiment on IGROV1 ovarian, in the experiment on EKVX NSCLC, in the experiment on SF-295 CNS, with 786-0 renal, in the experiment with COLO 205 colon and in the experiment on SN12C renal was over 10 µM in each case. The TGI in the experiment with A549 NSCLC and in the experiment on SK-OV-3 ovarian was over 10 µM in each case.
Consider `O=C(O)COc1ccccc1C(=O)Nc1ccccc1`, for which the TGI in the experiment on SF-268 CNS, with OVCAR-4 ovarian, with RPMI-8226 leukemia, in the experiment on HCT-116 colon, in the experiment on TK-10 renal and with NCI-H460 lung was over 100 µM in each case. The TGI with IGROV1 ovarian, in the experiment with EKVX NSCLC, in the experiment on SF-295 CNS, in the experiment with 786-0 renal, in the experiment with SK-MEL-2 melanoma and in the experiment on UO-31 renal was over 100 µM throughout. Besides, the TGI with COLO 205 colon, in the experiment with SN12C renal, in the experiment on A549 NSCLC and with SK-OV-3 ovarian was over 100 µM in each case.
Regarding `CCOc1cc(/C=C2/C(C)=NN(c3cccc(Cl)c3)/C2=N/c2nc3ccccc3s2)ccc1O`, the TGI in the experiment with SF-268 CNS was 86.1 µM; with NCI/ADR-RES ovarian it was 55.9 µM; with RPMI-8226 leukemia, over 100 µM; with A498 renal, 56.9 µM; in the experiment with HCT-116 colon, 67.5 µM; with TK-10 renal, over 100 µM. Besides, the TGI in the experiment with MDA-MB-231 breast was 59.6 µM; with NCI-H460 lung, 64 µM; with IGROV1 ovarian it was over 100 µM; in the experiment on EKVX NSCLC it was over 100 µM; in the experiment with SF-295 CNS, 93.8 µM; in the experiment on 786-0 renal, over 100 µM. In addition, the TGI in the experiment on SK-MEL-2 melanoma stood at 41.4 µM; in the experiment with UO-31 renal, 52.8 µM; in the experiment on SK-OV-3 ovarian it was 70.5 µM.

Source of the values: PubChem BioAssay (NCI).
